Experiments:
[1] = target: T1, Alpha-1A adrenergic receptor (Homo sapiens) (UniProt P35348); assay: Effect of zero external [Ca2+] on the contractions induced by acompound in the canine saphenous vein at EC50 concentration experimented in the presence of 2 mM EGTA and expressed as percent of control response in […] Ca+ physiological saline; abso; type: functional, tissue-based; details: Canis lupus familiaris
T1 sequence (whole entry): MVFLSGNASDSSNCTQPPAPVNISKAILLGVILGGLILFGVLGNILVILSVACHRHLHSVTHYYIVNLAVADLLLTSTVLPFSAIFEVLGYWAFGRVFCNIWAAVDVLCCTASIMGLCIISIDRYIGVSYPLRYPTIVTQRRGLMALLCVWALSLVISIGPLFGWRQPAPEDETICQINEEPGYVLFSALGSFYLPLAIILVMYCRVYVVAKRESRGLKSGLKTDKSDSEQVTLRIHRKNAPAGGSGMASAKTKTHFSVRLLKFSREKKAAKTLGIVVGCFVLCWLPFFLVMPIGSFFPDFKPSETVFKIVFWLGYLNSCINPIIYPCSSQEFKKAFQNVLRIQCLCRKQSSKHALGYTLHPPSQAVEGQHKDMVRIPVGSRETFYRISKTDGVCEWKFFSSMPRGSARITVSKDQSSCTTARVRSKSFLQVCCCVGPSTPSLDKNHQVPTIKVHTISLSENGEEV

[2] = target: T1, Alpha-1A adrenergic receptor (Homo sapiens); assay: Effect of 1 uM external [Ca2+] on the contractions induced by compound in the canine saphenous vein at EC25 concentration and expressed as percent of control response in […] Ca+; absolute concentration 1.5 +/-0.7 X 10e-7 M; type: functional, tissue-based; details: Canis lupus familiaris
[3] = target: T1, Alpha-1A adrenergic receptor (Homo sapiens); assay: Effect of zero uM external [Ca2+] on the contractions induced by compound in the canine saphenous vein at EC100 concentration experimented in the presence of 2 mM EGTA and expressed as percent of control response in […] Ca+ physiological saline; absolute concentration 5.0 X 10e-5 M; type: functional, tissue-based; details: Canis lupus familiaris
[4] = target: T1, Alpha-1A adrenergic receptor (Homo sapiens); assay: Effect of zero external [Ca2+] on the contractions induced by compound in the canine saphenous vein in the presence of 2 mM EGTA and expressed as percent of control response in […] Ca+ physiological saline; absolute concentration 1.5 +/-0.7 X 10e-; type: functional, tissue-based; details: Canis lupus familiaris
[5] = target: T1, Alpha-1A adrenergic receptor (Homo sapiens); assay: Effect of 1 uM external [Ca2+] on the contractions induced by compound in the canine saphenous vein at EC50 concentration and expressed as percent of control response in […] Ca+; absolute concentration 5.0 +/- 1.5 X 10e-7 M; type: functional, tissue-based; details: Canis lupus familiaris
[6] = Dissociation constant against constrictor response to the compound blocked competitively by phentolamine for alpha-mediated events; type: functional
[7] = target: T1, Alpha-1A adrenergic receptor (Homo sapiens); assay: Effect of 1 uM external [Ca2+] on the contractions induced by compound in the canine saphenous vein at EC100 concentration and expressed as percent of control response in […] Ca+; absolute concentration 5.0 X 10e-5 M; type: functional, tissue-based; details: Canis lupus familiaris

`CNCCc1ccc(O)c(NS(C)(=O)=O)c1` gave a Control response [1] of 20.2%, a Control response [2] of 8.1% and a Control response [3] of 37.9%. For the same compound, the Control response [4] was 6%, the Control response [5] was 37.6% and the Ki [6] was less than 20 nM. It also gave a Control response [7] of 78.3%.
